# Source: ChEMBL document CHEMBL1136081, “Structure-activity relationships of novel anti-malarial agents. Part 7: N-(3-benzoyl-4-tolylacetylaminophenyl)-3-(5-aryl-2-furyl)acrylic acid amides with polar moieties” (Bioorg Med Chem Lett, 2003)
# Test system: Plasmodium falciparum
# Assay: Inhibition against Plasmodium falciparum Dd2 in erythrocytes in semiautomated micro dilution assay
# Assay type: functional, organism-based
row,Compound,IC50
1,Cc1ccc(CC(=O)Nc2ccc(NC(=O)/C=C/c3ccc(-c4ccc(S(C)(=O)=O)cc4)o3)cc2C(=O)c2ccccc2)cc1,37 nM
2,Cc1ccc(CC(=O)Nc2ccc(NC(=O)/C=C/c3ccc(-c4ccc(NC=O)cc4)o3)cc2C(=O)c2ccccc2)cc1,280 nM
3,CCS(=O)(=O)c1ccc(-c2ccc(/C=C/C(=O)Nc3ccc(NC(=O)Cc4ccc(C)cc4)c(C(=O)c4ccccc4)c3)o2)cc1,60 nM
4,Cc1ccc(CC(=O)Nc2ccc(NC(=O)/C=C/c3ccc(-c4ccc(C#N)cc4)o3)cc2C(=O)c2ccccc2)cc1,220 nM
5,CC(=O)c1ccc(-c2ccc(/C=C/C(=O)Nc3ccc(NC(=O)Cc4ccc(C)cc4)c(C(=O)c4ccccc4)c3)o2)cc1,67 nM
6,Cc1ccc(CC(=O)Nc2ccc(NC(=O)/C=C/c3ccc(-c4ccc(S(N)(=O)=O)cc4)o3)cc2C(=O)c2ccccc2)cc1,200 nM
7,COC(=O)c1ccc(-c2ccc(/C=C/C(=O)Nc3ccc(NC(=O)Cc4ccc(C)cc4)c(C(=O)c4ccccc4)c3)o2)cc1,170 nM
8,Cc1ccc(CC(=O)Nc2ccc(NC(=O)/C=C/c3ccc(-c4ccc(C(F)(F)F)cc4)o3)cc2C(=O)c2ccccc2)cc1,77 nM
9,Cc1ccc(CC(=O)Nc2ccc(NC(=O)/C=C/c3ccc(-c4ccc(C(N)=O)cc4)o3)cc2C(=O)c2ccccc2)cc1,560 nM
10,Cc1ccc(CC(=O)Nc2ccc(NC(=O)/C=C/c3ccc(-c4ccc(N)cc4)o3)cc2C(=O)c2ccccc2)cc1,260 nM
11,CC(=O)Nc1ccc(-c2ccc(/C=C/C(=O)Nc3ccc(NC(=O)Cc4ccc(C)cc4)c(C(=O)c4ccccc4)c3)o2)cc1,560 nM
